Results taken from patent US9468632B2, “Methods and compositions for targeting cancer stem cells” (The Regents of the University of Michigan, priority 2012, dated 2016).
Positions count from the first letter of the chain named.

Tests used:
ALDH1A1 (S121) = target: T1, ALDH1A1 (S121) (Homo sapiens, UniProt P00352, N121S); assay: In vitro enzymatic inhibition assay, ALDH1A1 (S121); format: biochemical
T1 sequence (P00352 1-501 N121S): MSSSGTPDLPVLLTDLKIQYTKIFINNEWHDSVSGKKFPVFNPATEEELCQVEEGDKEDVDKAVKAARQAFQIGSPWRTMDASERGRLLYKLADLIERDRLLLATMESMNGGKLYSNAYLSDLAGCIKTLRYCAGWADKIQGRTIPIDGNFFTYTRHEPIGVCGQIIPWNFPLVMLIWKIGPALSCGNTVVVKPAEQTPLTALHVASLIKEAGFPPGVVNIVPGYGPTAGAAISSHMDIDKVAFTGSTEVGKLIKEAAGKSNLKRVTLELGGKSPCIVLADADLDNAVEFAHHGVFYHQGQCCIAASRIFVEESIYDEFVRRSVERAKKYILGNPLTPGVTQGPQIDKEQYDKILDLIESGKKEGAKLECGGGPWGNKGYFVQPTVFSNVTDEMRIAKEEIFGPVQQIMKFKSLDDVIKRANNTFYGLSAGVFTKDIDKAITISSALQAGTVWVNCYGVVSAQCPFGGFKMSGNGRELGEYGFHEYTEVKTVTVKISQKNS

ALDH2 = ALDH2 (Homo sapiens, UniProt P05091); assay: In vitro enzymatic inhibition assay, ALDH2; format: biochemical
ALDH1A1 (WT) = target: T2, ALDH1A1 (WT) (Homo sapiens, UniProt P00352); assay: In vitro enzymatic inhibition assay, ALDH1A1 (WT); format: biochemical
T2 sequence (P00352 1-501): T1 sequence (P00352 1-501 N121S) with S121N

ALDH1A2 = target: T3, ALDH1A2 (Homo sapiens, UniProt O94788); assay: In vitro enzymatic inhibition assay, ALDH1A2; format: biochemical
T3 sequence (O94788 1-518): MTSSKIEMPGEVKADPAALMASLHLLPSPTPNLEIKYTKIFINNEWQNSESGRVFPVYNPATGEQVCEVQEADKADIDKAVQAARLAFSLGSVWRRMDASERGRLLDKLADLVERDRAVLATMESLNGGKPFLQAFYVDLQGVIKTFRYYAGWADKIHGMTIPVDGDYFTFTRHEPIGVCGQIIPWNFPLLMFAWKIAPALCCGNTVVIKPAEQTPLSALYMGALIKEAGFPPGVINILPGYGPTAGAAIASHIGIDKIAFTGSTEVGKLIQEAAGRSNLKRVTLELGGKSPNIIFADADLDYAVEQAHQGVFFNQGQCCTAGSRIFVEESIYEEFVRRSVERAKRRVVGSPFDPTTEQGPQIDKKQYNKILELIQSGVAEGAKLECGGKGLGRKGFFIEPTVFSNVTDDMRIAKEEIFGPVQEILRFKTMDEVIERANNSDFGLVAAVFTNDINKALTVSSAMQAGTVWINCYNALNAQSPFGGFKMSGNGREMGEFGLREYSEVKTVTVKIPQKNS

ALDH1A3 = target: T4, ALDH1A3 (Homo sapiens, UniProt P47895); assay: In vitro enzymatic inhibition assay, ALDH1A3; format: biochemical; conditions: 2 min incub
T4 sequence (P47895 1-512): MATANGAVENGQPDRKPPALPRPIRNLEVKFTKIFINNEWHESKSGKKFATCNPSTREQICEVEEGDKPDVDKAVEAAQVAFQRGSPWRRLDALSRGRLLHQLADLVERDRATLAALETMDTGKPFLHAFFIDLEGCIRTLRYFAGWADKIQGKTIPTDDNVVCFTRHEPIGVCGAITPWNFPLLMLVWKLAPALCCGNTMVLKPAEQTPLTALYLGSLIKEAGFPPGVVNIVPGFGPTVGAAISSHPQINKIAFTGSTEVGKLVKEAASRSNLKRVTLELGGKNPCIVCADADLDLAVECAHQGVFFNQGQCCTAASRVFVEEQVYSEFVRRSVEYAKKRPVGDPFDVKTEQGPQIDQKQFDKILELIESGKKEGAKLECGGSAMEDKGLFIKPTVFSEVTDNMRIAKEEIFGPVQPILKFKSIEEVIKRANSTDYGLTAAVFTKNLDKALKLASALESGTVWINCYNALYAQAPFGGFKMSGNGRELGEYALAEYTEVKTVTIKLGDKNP

[1] = tested on: primary human tumor xenografts; assay: Primary human tumor xenografts from chemotherapy refractory ovarian cancer; format: in vivo, mice; conditions: treatment started at ˜500 mm^3
Text: In order to confirm in vivo activity against primary ovarian cancers, primary human tumor xenografts were generated from a patient with chemotherapy refractory ovarian cancer. Xenografts were allowed to grow until they reached ˜500 mm^3, and then treatment with either vehicle, cisplatin or cisplatin and UM 673 was initiated. […] After discontinuation of therapy, tumor regrowth was observed after approximately 4 weeks (FIG. 5D).

ALDH+ cells = assay: Time to recovery after treatment, isolated ALDH+ cells; format: cell-based
Text: (§1) A. Time to recovery for SKOV3 ovarian cancer cells treated with cisplatin or combined cisplatin and ALDH inhibitor. […] Cisplatin treated ALDH+ cells required approximately 6 days to recover whereas cisplatin treated ALDH− cells required 14 days to recover.

ALDH− cells = assay: Time to recovery after treatment, isolated ALDH− cells; format: cell-based
Text: as §1

[2] = tested on: A2780 tumor cell xenografts; assay: A2780 tumor cell xenografts, tumor growth; format: in vivo, mice; conditions: unsorted A2780 cells, treatment from day 3
Protocol: 6-8 week old nude female mice were purchased from Charles River Laboratories. All xenograft experiments were performed with approval of the University Committee on Use and Care of Animals of the University of Michigan. To generate tumors, 7.5×10^4 unsorted A2780 cells or 7500 CD133+ sorted A2780 cells were combined with 100 μl of DPBS and 100 μl of Matrigel (BD Biosciences), and then implanted subcutaneously into bilateral axillae of each mouse. 3 days after inoculation with tumors, mice were given an intra-peritoneal injection of (1) control DMSO 40 μl, (2) Cisplatin 250 μg/ml, (3) UM #673 10 μM, or (4) Cisplatin plus UM #673 (n=9 mice per treatment group). Tumor growth was measured using calipers, and tumor volume was calculated based on the modified ellipsoid formula (L×W×W/2), where L is the length and W is the width of the tumor. The mice were euthanized when tumors reached 1.5 to 2 cm^3 and animal safety euthanasia guidelines were met. Intraperitoneal tumors were generated using 5×10^6 OVCAR8 in […] of PBS and injected I.P. 3 days after inoculation, mice were given intra-peritoneal injection of Cisplatin or Cisplatin plus UM #673.
The impact of UM673 as a single agent was evaluated. NOD/SCID mice were inoculated with 1×10^5 unsorted A2780 cells and treatment was initiated three days after tumor inoculation with either vehicle control or UM #673. […] This is consistent with other studies of CSC targeting agents.
The experiments were repeated in combination with cisplatin. In addition, xenografts from both whole cell line and FACS isolated CD133+ cells were treated.

[3] = tested on: in vitro treated, PI-/Annexin-FACS isolated live cells; assay: Tumor initiation capacity of in vitro treated live cells injected into mice; format: in vivo
Protocol: An important functional aspect of a cancer stem cell is the ability to initiate tumors with limited cell numbers. In order to determine if UM673 could impact tumor initiation, cells were treated in vitro with a single dose of UM673 alone or in combination with cisplatin. Cells were allowed to recover for three days and then PI(−)/Annexin(−) live cells were faxed isolated and injected into mice. 200, 1000, or 5000 cells from each treatment group (n=4-10/group) were injected.

Chain of ALDH2 (P05091 18-517): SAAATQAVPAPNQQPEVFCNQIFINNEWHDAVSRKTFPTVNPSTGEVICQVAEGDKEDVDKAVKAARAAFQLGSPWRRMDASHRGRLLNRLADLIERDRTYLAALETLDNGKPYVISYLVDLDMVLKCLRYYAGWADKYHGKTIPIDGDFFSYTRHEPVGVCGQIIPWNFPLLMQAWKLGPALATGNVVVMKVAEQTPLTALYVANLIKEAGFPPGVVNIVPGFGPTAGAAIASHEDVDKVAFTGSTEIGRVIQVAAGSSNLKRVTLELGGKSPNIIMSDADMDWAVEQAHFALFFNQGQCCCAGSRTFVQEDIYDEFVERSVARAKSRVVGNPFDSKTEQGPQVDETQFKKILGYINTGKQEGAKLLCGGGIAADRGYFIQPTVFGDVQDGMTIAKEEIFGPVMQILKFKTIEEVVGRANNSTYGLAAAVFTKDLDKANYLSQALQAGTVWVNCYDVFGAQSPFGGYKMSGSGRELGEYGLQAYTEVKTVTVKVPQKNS

| Structure (SMILES) | IC50 (ALDH1A1 (S121)) [nM] | IC50 (ALDH2) [nM] | IC50 (ALDH1A1 (WT)) [nM] | IC50 (ALDH1A2) [nM] | IC50 (ALDH1A3) [nM] | tumor growth [1] | time to recover back to initial cell levels (ALDH+ cells) | time to recover (ALDH− cells) [days] | tumor growth [2] | tumor initiation (tumors/injections) ([3]; 200 cells injected) | tumor initiation (tumors/injections) ([3]; 1000 cells injected) | tumor initiation (tumors/injections) ([3]; 5000 cells injected) | effect on tumor initiation capacity ([3]; compared to untreated controls) |
| --- | --- | --- | --- | --- | --- | --- | --- | --- | --- | --- | --- | --- | --- |
| Cc1cc(N2Cc3ccccc3C2)ccc1C=O [673A] | 230 ± 10 | 1680 ± 190 | 216 ± 22 | 211 ± 36 | 170 ± 28 | – | – | – | – | – | – | – | – |
| O=Cc1ccc(N2Cc3ccccc3C2)cc1 [673B] | 1240 ± 118 | > 20000 | 450 ± 35 | 800 ± 147 | 1340 ± 480 | – | – | – | – | – | – | – | – |
| N.N.[Cl][Pt][Cl] [Cisplatin, reference compound] | – | – | – | – | – | no effect on tumor growth | approximately 6 days | 14 | modest restrictions in tumor growth | 1/4 | 4/4 | 8/8 | neither cisplatin or UM673 affected tumor initiation |
